{
  "source": "patent US20120156333A1",
  "about": "“STABILIZED BETA CRYPTOXANTHIN-CONTAINING WATER AND THE USE THEREOF” (ARKRAY, INC., priority 2010, published 2012)",
  "assay": "β cryptoxanthin stabilizing test, Example 1A (water from Citrus unshiu paste with additive L-ascorbic acid, stored at 40° C.)",
  "assay_type": "physicochemical",
  "conditions": "0.002 parts by mass β cryptoxanthin (paste) in water",
  "experimental": "The prepared paste derived from Citrus unshiu and water were mixed. Thus, a mixed solution was prepared. The mixing was conducted so that a mass ratio between β cryptoxanthin contained in the paste and the mixed water became 1 mg:50 g (0.002 parts by mass of β cryptoxanthin with respect to 100 parts by mass of finally obtained β cryptoxanthin-containing water). Vitamin C (L-ascorbic acid) was added to the mixed solution, which was then mixed by stirring. Thus, β cryptoxanthin-containing waters were prepared. The total amounts of L-ascorbic acid in the respective β cryptoxanthin-containing waters were set to 0.005, 0.01, 0.02, 0.05, 0.1, and 0.2 parts by mass with respect to 100 parts by mass of entire β cryptoxanthin-containing water by adding vitamin C. As a blank, a β cryptoxanthin-containing water was prepared in the same manner as described above except that vitamin C (L-ascorbic acid) was not added to the mixed solution. 50 g of six types of the β cryptoxanthin-containing waters and 50 g of the f3-cryptoxanthin-containing water as a blank were filled in the respective brown bottles. Thereafter, the brown bottles were subjected to a heat sterilization treatment under the condition at 90° C. for 30 minutes, which were then stored at 40° C. Sampling was conducted on a storage start date, after one month from the storage start date, and after two months from the same. The respective amounts of β cryptoxanthin in samples were measured by HPLC as shown below. Then, assuming that the amount of β cryptoxanthin on the storage start date was 100%, residual ratios of β cryptoxanthin were determined. The samples were treated at 70° C. for 30 minutes under alkaline conditions before being subjected to HPLC. By this treatment, β cryptoxanthin in the samples was saponified and was converted to a free form. After the treatment, the samples were subjected to a liquid-liquid extraction and were then concentrated. Thus, samples for HPLC were obtained. In the measurements of the amounts of β cryptoxanthin by HPLC, a HPLC system to which a column (J'sphere ODS-M80 (product name) with 250×4.6 mm I.D, produced by YMC Co., Ltd.) had been connected was used, and absorbances at 455 nm were measured by a UV detector ([…] (product name), produced by Hitachi Ltd.). Conditions of the column were as follows. • Mobile phase: acetonitrile/tetrahydrofuran (volume ratio: 95/5) containing 0.1% acetic acid and 50 ppm of α-tocopherol • Flow rate: 1.0 mL/minute • Column temperature: 55° C.",
  "key": {"[1]": {"conditions": "additive L-ascorbic acid 0 parts by mass (blank)"}, "[2]": {"conditions": "additive L-ascorbic acid 0.005 parts by mass"}, "[3]": {"conditions": "additive L-ascorbic acid 0.01 parts by mass"}, "[4]": {"conditions": "additive L-ascorbic acid 0.02 parts by mass"}, "[5]": {"conditions": "additive L-ascorbic acid 0.05 parts by mass"}, "[6]": {"conditions": "additive L-ascorbic acid 0.1 parts by mass"}, "[7]": {"conditions": "additive L-ascorbic acid 0.2 parts by mass"}},
  "data": [
    {"smiles": "CC1=C(/C=C/C(C)=C/C=C/C(C)=C/C=C/C=C(C)/C=C/C=C(C)/C=C/C2=C(C)C[C@@H](O)CC2(C)C)C(C)(C)CCC1", "note": "[β cryptoxanthin]", "values": [
      {"measurement": "Residual ratio of β cryptoxanthin Storage for one month (%)", "setting": "[1]", "value": 76.9, "unit": "%"},
      {"measurement": "Residual ratio of β cryptoxanthin Storage for two months (%)", "setting": "[1]", "value": 29.9, "unit": "%"},
      {"measurement": "Residual ratio of β cryptoxanthin Storage for one month (%)", "setting": "[2]", "value": 83.8, "unit": "%"},
      {"measurement": "Residual ratio of β cryptoxanthin Storage for two months (%)", "setting": "[2]", "value": 48.8, "unit": "%"},
      {"measurement": "Residual ratio of β cryptoxanthin Storage for one month (%)", "setting": "[3]", "value": 96.7, "unit": "%"},
      {"measurement": "Residual ratio of β cryptoxanthin Storage for two months (%)", "setting": "[3]", "value": 78.9, "unit": "%"},
      {"measurement": "Residual ratio of β cryptoxanthin Storage for one month (%)", "setting": "[4]", "value": 100, "unit": "%"},
      {"measurement": "Residual ratio of β cryptoxanthin Storage for two months (%)", "setting": "[4]", "value": 100, "unit": "%"},
      {"measurement": "Residual ratio of β cryptoxanthin Storage for one month (%)", "setting": "[5]", "value": 98.0, "unit": "%"},
      {"measurement": "Residual ratio of β cryptoxanthin Storage for two months (%)", "setting": "[5]", "value": 99.0, "unit": "%"},
      {"measurement": "Residual ratio of β cryptoxanthin Storage for one month (%)", "setting": "[6]", "value": 94.4, "unit": "%"},
      {"measurement": "Residual ratio of β cryptoxanthin Storage for two months (%)", "setting": "[6]", "value": 94.7, "unit": "%"},
      {"measurement": "Residual ratio of β cryptoxanthin Storage for one month (%)", "setting": "[7]", "value": 68.3, "unit": "%"},
      {"measurement": "Residual ratio of β cryptoxanthin Storage for two months (%)", "setting": "[7]", "value": 31.3, "unit": "%"}
    ]}
  ]
}
